# Publication PMC3969379, “Neospora caninum Calcium-Dependent Protein Kinase 1 Is an Effective Drug Target for Neosporosis Therapy” (PLoS ONE, 2014)
# Like-named read-outs stand apart in the source and are kept apart here.
# Legend:
# [1] = target: recombinant NcCDPK1 (Neospora caninum, UniProt F0V9W9); test: biochemical
# Procedure: Protein kinase activity of recombinant NcCDPK1 and inhibition of its kinase phosphorylation properties by BKIs was measured in a non-radioactive assay using Kinase-Glo luciferase reagent (Promega, Madison, WI). This luminescence based assay measures kinase activity in the presence or absence of inhibitors by reporting changes in initial ATP concentration after NcCDPK1 phosphorylation of biotinylated Syntide-2 peptide substrate (Biotin-C6-[…]) (BioSyntide-2) (American Peptide Company, Inc. Sunnyvale, CA), [40]. […] The reaction was initiated by the addition of 10 μM ATP and incubated for 90 minutes at 30°C. Changes in initial ATP concentration was evaluated as a luminescence readout using a MicroBeta2 multi-label plate reader (Perkin Elmer, Waltham, MA).
# [2] = system: N. caninum tachyzoites; test: N. caninum-β-gal tachyzoite proliferation in HFF, 3 days; format: cell-based; details: Neospora caninum, read-out: EC50 N. caninum
# Procedure: Transgenic N. caninum tachyzoites expressing beta-galactosidase under a constitutive promoter (N. caninum-β-gal) were grown in Vero cells and were separated from host cell components as previously described. Human foreskin fibroblasts (HFF) at 5×10^3 cells per well in phenol-red free culture medium were incubated at 37°C with 5% CO2 and were grown to confluence in a 96-well plate. […] Cultures were infected with N. caninum-β-gal tachyzoites (1×10^3 per well). After three days at 37°C/5% CO2, plates were centrifuged at 500 g, medium was removed, and cell cultures were lysed in PBS containing 0.05% Triton-X-100. After addition of 10 μL of 5 mM chlorophenol red-b-D-galactopyranoside (CPRG; Roche Diagnostics, Rotkreuz, Switzerland) dissolved in PBS, the absorption shift was measured at 570 nm wavelength at various time points on a VersaMax multiplate reader (Bucher Biotec, Basel, Switzerland). The activity, measured as the release of chlorophenol red over time, was proportional to the number of life parasites down to 50 per well as determined in pilot assays. EC50 values were calculated after the logit-log-transformation of relative growth and subsequent regression analysis by the corresponding software tool contained in the Excel software package (Microsoft, Seattle, WA).
# [3] = system: T. gondii; details: cited from earlier work
# [4] = system: N. caninum tachyzoites in HFF; test: Host cell invasion assay, BKI treatment pre- and post-infection (β-galactosidase); format: cell-based, Neospora caninum
# Procedure: Control wells with equal volume of DMSO were also included per reaction plate. Two hours after initiating the experiment, the cells were washed. Selected untreated assay plates were treated with 1294 for 60 minutes after the initial wash with medium. All the assay plates were incubated for one hour before a final wash and reading the beta-galactosidase activity.
# [5] = system: N. caninum; test: N. caninum infected Balb/c mice, cerebral parasite load by real time PCR; format: in vivo
# [6] = system: Cryptosporidium parvum; parameters: method as in PMID 23878324; details: in vitro and in vivo; cited from earlier work
# [7] = system: malaria transmission; parameters: method as in PMID 24123773; details: cited from earlier work
# [8] = cited from earlier work
# [9] = concentration that inhibits protein kinase activity by 50%, 10 μM ATP, 40 μM BioSyntide-2, 3.3 nM enzyme, read-out: IC50 NcCDPK1
# [10] = 72 h, concentration that inhibits cell growth by 50%, tachyzoites in HFF, 3 days
# Sequence of recombinant NcCDPK1 (F0V9W9 entry or part of it): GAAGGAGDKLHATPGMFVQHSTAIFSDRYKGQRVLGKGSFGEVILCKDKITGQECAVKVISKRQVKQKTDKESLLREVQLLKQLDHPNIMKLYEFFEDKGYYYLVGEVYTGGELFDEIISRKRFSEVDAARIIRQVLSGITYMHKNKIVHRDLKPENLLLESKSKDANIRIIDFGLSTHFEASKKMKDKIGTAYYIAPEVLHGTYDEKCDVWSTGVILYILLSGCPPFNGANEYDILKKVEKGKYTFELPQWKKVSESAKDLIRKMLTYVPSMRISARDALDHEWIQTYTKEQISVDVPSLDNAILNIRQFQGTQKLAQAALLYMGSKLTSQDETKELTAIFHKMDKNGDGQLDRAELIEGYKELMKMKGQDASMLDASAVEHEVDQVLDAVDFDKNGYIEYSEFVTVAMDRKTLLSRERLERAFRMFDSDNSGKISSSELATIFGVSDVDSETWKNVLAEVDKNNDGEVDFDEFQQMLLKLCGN
Structure (SMILES),"IC50 [1, 9]","EC50 [2, 10]",EC50 [3],other results
CC(C)(C)n1nc(-c2ccc3ccccc3c2)c2c(N)ncnc21 [11b],0.0017 µM,0.14 µM,0.347 µM,
CCOc1ccc2cc(-c3nn(C4CCN(C)CC4)c4ncnc(N)c34)ccc2c1 [15h],0.0014 µM,0.055 µM,0.05 µM,
CCOc1ccc2cc(-c3nn(C4CCN(CC)CC4)c4ncnc(N)c34)ccc2c1 [15i],0.0023 µM,0.099 µM,0.09 µM,
CCOc1ccc2cc(-c3nn(CC4CCNCC4)c4ncnc(N)c34)ccc2c1 [15n],,0.05 µM,0.052 µM,
CCOc1ccc2cc(-c3nn(CC4CCNCC4)c4ncnc(N)c34)ccc2n1 [16n],0.0017 µM,0.049 µM,,
CCOc1ccc2cc(-c3nn(CC4CCN(C)CC4)c4ncnc(N)c34)ccc2c1 [compound 1294],,,0.137 µM,"IC50 [1]: 0.0026 µM; EC50 ([2]; HFF-3, 72 h): 0.032 µM; beta-galactosidase activity (host cell invasion) ([4]; 5 μM added after the infection phase of 2 hours, p>0.2): no difference; beta-galactosidase activity (host cell invasion) ([4]; 5 μM added at 60, 90 and 115 minutes after initiation of infection): no significant difference; beta-galactosidase activity (host cell invasion) ([4]; 5 μM added at initiation of HFF infection, 2 hours, vs 1266 or DMSO, p<0.001): significant decrease; cerebral parasite load vs placebo group ([5]; group B: 50 mg/kg oral daily from day 3 post infection for 5 days, P = 0.0139): tendency towards reduced parasite load; cerebral parasite load vs placebo group ([5]; group C: 50 mg/kg oral daily from day 3 post infection for 10 days, P = 0.0047): clearly the most effective; reduction of cerebral parasite burden compared to untreated control ([5]; oral 50 mg/kg for 5 days, established murine neosporosis): 10 fold; activity against Cryptosporidium parvum cell growth [6]: profound in vitro and in vivo activity; malaria transmission blocking [7]: excellent malaria transmission blocking properties; pharmacokinetic data [8]: favorable absorption with low clearance; toxicity in mammalian cells and rodents ([8]; in vivo): low toxicity"
CCOc1ccc2cc(-c3nn(CC4CCOCC4)c4ncnc(N)c34)ccc2n1 [compound 1412],0.002 µM,0.119 µM,,
